Assays:
[1] = target: T1, pyruvate kinase activity, 661W cell line (Mus musculus, UniProt P52480); experiment: Pyruvate kinase activity in 661W cell lysates after 2 hours treatment; format: cell-based; settings: 661W cells, 2 hours incubation, activity normalized to total protein; for Emax: read-out: Max Activation (cell)
T1 construct: endogenous in cells; host or cells: 661W cell line
Protocol: Cell culture. For 661W cell line experiments, media was replaced prior to the start of treatment with DMSO or ML-265. Cells were incubated with DMSO or different concentrations of ML-265 for 2 hours. Cells were lysed and homogenized in RIPA Lysis and Extraction Buffer (Catalog number: 89900, Life Technologies Corporation, Grand Island, NY) with protease inhibitors (Complete-Mini, Roche Diagnostics, Indianapolis, IN) and cellular debris was removed by centrifugation at 10,000 rpm for 10 minutes. Ten microliters of the supernatant was used to assess pyruvate kinase activity, and the activity was normalized to total protein content as previously described.

human recombinant PKM2 = target: T2, human recombinant PKM2 (Homo sapiens, UniProt P14618); experiment: Pyruvate kinase activity enzyme assay, recombinant enzyme (LDH-coupled, NADH depletion at 340 nm); format: biochemical; settings: normalized to DMSO-treated PKM2 activity; for EC50: recombinant PKM2 20 nM; for Max Activation / Emax: recombinant PKM2; for Emax: read-out: Max Activation
T2 construct: purchased Sigma SAE0021
Protocol: Pyruvate Kinase Activity Enzyme Assay. Recombinant Enzyme. A continuous, enzyme-coupled assay, which uses lactate dehydrogenase (LDH) and measures the depletion of NADH via absorbance at 340 nm was utilized to determine the pyruvate kinase activity. For AC50 measurements (concentration of activator necessary to achieve half-maximal activation) with ML-265, assays were performed in 96-well format using 200 μL/well assay volume with final concentrations of 20 nM human recombinant PKM2 (Sigma, SAE0021), differing concentrations of ML-265, 0.5 mM PEP, 1 mM ADP, 0.2 mM NADH, and 8 U of lactate dehydrogenase (LDH) in an assay buffer of 50 mM Tris-HCl (pH 7.4), 100 mM KCl, and 5 mM MgCl2. The decrease in absorbance at 340 nm was monitored using a SPECTROstar Omega plate reader (BMG LABTECH Inc., Cary, NC, USA). Initial velocities were calculated with the MARS software. Data were normalized to DMSO (dimethyl sulfoxide)-treated PKM2 activity.

T2 sequence (P14618 whole entry): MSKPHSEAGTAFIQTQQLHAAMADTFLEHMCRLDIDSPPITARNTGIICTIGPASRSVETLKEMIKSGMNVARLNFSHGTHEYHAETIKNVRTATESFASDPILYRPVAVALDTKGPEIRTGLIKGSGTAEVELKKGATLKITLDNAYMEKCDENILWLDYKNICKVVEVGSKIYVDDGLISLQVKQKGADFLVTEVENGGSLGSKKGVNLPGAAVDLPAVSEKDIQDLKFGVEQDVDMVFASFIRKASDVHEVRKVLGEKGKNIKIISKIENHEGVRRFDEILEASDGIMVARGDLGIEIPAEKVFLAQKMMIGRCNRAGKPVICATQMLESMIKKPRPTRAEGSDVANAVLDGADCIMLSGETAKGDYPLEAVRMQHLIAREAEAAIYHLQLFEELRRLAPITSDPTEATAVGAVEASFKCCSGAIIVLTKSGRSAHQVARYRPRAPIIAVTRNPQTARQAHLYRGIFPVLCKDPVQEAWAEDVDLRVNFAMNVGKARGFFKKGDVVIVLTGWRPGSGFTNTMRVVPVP
T1 sequence (P52480 whole entry): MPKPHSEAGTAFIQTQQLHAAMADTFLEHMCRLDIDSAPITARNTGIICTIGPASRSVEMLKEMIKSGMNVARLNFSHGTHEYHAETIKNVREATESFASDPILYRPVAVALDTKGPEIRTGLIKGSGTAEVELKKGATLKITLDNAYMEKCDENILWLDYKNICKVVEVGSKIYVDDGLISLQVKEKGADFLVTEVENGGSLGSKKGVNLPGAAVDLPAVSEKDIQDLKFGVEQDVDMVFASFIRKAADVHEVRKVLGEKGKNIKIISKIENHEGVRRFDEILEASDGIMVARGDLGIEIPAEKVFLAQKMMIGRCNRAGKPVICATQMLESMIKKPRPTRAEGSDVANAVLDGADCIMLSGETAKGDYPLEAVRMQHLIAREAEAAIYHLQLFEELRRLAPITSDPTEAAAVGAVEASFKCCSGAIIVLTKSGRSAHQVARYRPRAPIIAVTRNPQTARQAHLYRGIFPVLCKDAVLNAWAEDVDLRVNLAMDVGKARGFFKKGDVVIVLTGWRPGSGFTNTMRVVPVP

Row | Compound | EC50 [1] [nM] | Max Activation (cell) [1] [%] | EC50 (human recombinant PKM2) [nM] | Max Activation (human recombinant PKM2) [%] | Emax [1] [%] | Emax (human recombinant PKM2) [%]
1 | 3-((1H-pyrazol-3-yl)methyl)-7-41H-pyrazolo[4,3-c]pyridin-4-yl)oxy)-5-methyl-3,5-dihydro-4H-pyridazino[4,5-b]indol-4-one [Example 87] | 95 | 317 | 50 | 270 | – | –
2 | Cc1ccc2c3cnn(Cc4ccccc4)c(=O)c3n(C)c2c1 [Example 1, 3-Benzyl-5,7-dimethyl-3,5-dihydro-4H-pyridazino[4,5-b]indol-4-one] | 15 | – | 117 | – | 431 | 212
3 | COc1ccc(Cn2ncc3c4ccc(C)cc4n(C)c3c2=O)cc1 [Example 2, 3-(4-Methoxybenzyl)-5,7-dimethyl-3,5-dihydro-4H-pyridazino[4,5-b]indol-4-one] | – | – | 106 | – | – | 90
4 | Cc1ccc2c3cnn(Cc4cccc(N)c4)c(=O)c3n(C)c2c1 [Example 3, 3-(3-Aminobenzyl)-5,7-dimethyl-3,5-dihydro-4H-pyridazino[4,5-b]indol-4-one] | 28 | – | 428 | – | 310 | 193
5 | CSc1ccc2c3cnn(Cc4ccccc4)c(=O)c3n(C)c2c1 [Example 4, 3-Benzyl-5-methyl-7-(methylthio)-3,5-dihydro-4H-pyridazino[4,5-b]indol-4-one] | 22 | – | 527 | – | 309 | 267
6 | Cn1c2cc([S+](C)[O-])ccc2c2cnn(Cc3ccccc3)c(=O)c21 (stereo not shown) [Example 5, 3-Benzyl-5-methyl-7-(methylsulfinyl)-3,5-dihydro-4H-pyridazino[4,5-b]indol-4-one] | 13 | – | 192 | – | 295 | 226
7 | Cn1c2cc([S+](C)[O-])ccc2c2cnn(Cc3cccc(N)c3)c(=O)c21 (stereo not shown) [Example 7, 3-(3-Aminobenzyl)-5-methyl-7-(methylsulfinyl)-3,5-dihydro-4H-pyridazino[4,5-b]indol-4-one] | 18 | – | 63 | – | 355 | 222
8 | COc1ccc2c3cnn(Cc4cccc(N)c4)c(=O)c3n(C)c2c1 [Example 8, 3-(3-Aminobenzyl)-7-methoxy-5-methyl-3,5-dihydro-4H-pyridazino[4,5-b]indol-4-one] | 25 | – | 117 | – | 324 | 271
9 | COc1ccc2c3cnn(Cc4cn5ccccc5n4)c(=O)c3n(C)c2c1 [Example 11, 3-(Imidazo[1,2-a]pyridin-2-ylmethyl)-7-methoxy-5-methyl-3,5-dihydro-4H-pyridazino[4,5-b]indol-4-one] | – | – | 110 | – | – | 170
10 | COc1ccc2c3cnn(Cc4ccc5ncccc5c4)c(=O)c3n(C)c2c1 [Example 12, 7-Methoxy-5-methyl-3-(quinolin-6-ylmethyl)-3,5-dihydro-4H-pyridazino[4,5-b]indol-4-one] | – | – | 131 | – | – | 123
11 | Cn1c2cc(O)ccc2c2cnn(Cc3cccc(N)c3)c(=O)c21 [Example 15, 3-(3-Aminobenzyl)-7-hydroxy-5-methyl-3,5-dihydro-4H-pyridazino[4,5-b]indol-4-one] | 124 | – | 40 | – | 296 | 254
12 | Cc1cc2c3cnn(Cc4ccccc4F)c(=O)c3n(C)c2s1 [Example 16, 6-(2-Fluorobenzyl)-2,8-dimethyl-6,8-dihydro-7H-thieno[3′,2′:4,5]pyrrolo[2,3-d]pyridazin-7-one] | 58 | – | 40 | – | 279 | 231
13 | Cc1ccc2c3cnn(Cc4cccc(F)c4)c(=O)c3n(C)c2n1 [Example 18, 7-(3-fluorobenzyl)-2,9-dimethyl-7,9-dihydro-8H-pyrido[3′,2′:4,5]pyrrolo[2,3-d]pyridazin-8-one] | 23 | – | 41 | – | 292 | 264
14 | COc1cc2c(cc1F)c1cnn(Cc3cccc(N)c3)c(=O)c1n2C [Example 20, 3-(3-aminobenzyl)-8-fluoro-7-methoxy-5-methyl-3,5-dihydro-4H-pyridazino[4,5-b]indol-4-one] | 67 | – | 15 | – | 229 | 199
15 | Cn1c2cc(O)c(F)cc2c2cnn(Cc3cccc(N)c3)c(=O)c21 [Example 21, 3-(3-aminobenzyl)-8-fluoro-7-hydroxy-5-methyl-3,5-dihydro-4H-pyridazino[4,5-b]indol-4-one] | 75 | – | 25 | – | 273 | 299
16 | COc1cccc2c3cnn(Cc4cccc(N)c4)c(=O)c3n(C)c12 [Example 23, 3-(3-aminobenzyl)-6-methoxy-5-methyl-3,5-dihydro-4H-pyridazino[4,5-b]indol-4-one] | 33 | – | 22 | – | 288 | 196
17 | COc1ccc2c(c1)c1cnn(Cc3cccc(N)c3)c(=O)c1n2C [Example 27, 3-(3-aminobenzyl)-8-methoxy-5-methyl-3,5-dihydro-4H-pyridazino[4,5-b]indol-4-one] | – | – | 26 | – | – | 307
18 | COc1cc2c(cc1F)c1cnn(Cc3cccc(C)n3)c(=O)c1n2C [Example 52, 8-fluoro-7-methoxy-5-methyl-3-((6-methylpyridin-2-yl)methyl)-3,5-dihydro-4H-pyridazino[4,5-b]indol-4-one] | 66 | – | 97 | – | 305 | 225
19 | COc1cc2c(cc1F)c1cnn(Cc3cccc(N)c3)c(=O)c1n2C [Example 53, 3-(3-aminobenzyl)-8-fluoro-7-methoxy-5-methyl-3,5-dihydro-4H-pyridazino[4,5-b]indol-4-one] | 37 | 229 | 15 | 199 | – | –
20 | Cn1c2cc(O)c(F)cc2c2cnn(Cc3cccc(N)c3)c(=O)c21 [Example 54, 3-(3-aminobenzyl)-8-fluoro-7-hydroxy-5-methyl-3,5-dihydro-4H-pyridazino[4,5-b]indol-4-one] | 75 | 273 | 53 | 299 | – | –
21 | Cc1cccc(Cn2ncc3c4cc(Oc5ccc6[nH]ncc6n5)ccc4n(C)c3c2=O)n1 [Example 60, 8-((1H-pyrazolo[4,3-b]pyridin-5-yl)oxy)-5-methyl-3-((6-methylpyridin-2-yl)methyl)-3,5-dihydro-4H-pyridazino[4,5-b]indol-4-one] | 54 | – | 67 | – | 334 | 243
22 | Cc1cccc(Cn2ncc3c4ccc(Oc5ccc6[nH]ncc6n5)cc4n(C)c3c2=O)n1 [Example 62, 7-((1H-pyrazolo[4,3-b]pyridin-5-yl)oxy)-5-methyl-3-((6-methylpyridin-2-yl)methyl)-3,5-dihydro-4H-pyridazino[4,5-b]indol-4-one] | 134 | – | 82 | – | 376 | 221
23 | Cc1cccc(Cn2ncc3c4ccc(Oc5cccc(O)n5)cc4n(C)c3c2=O)n1 [Example 63, 7-((6-hydroxypyridin-2-yl)oxy)-5-methyl-3-((6-methylpyridin-2-yl)methyl)-3,5-dihydro-4H-pyridazino[4,5-b]indol-4-one] | 78 | – | 31 | – | 302 | 219
24 | Cc1cccc(Cn2ncc3c4ccc(Oc5nccc6[nH]ncc56)cc4n(C)c3c2=O)n1 [Example 64, 7-((1H-pyrazolo[4,3-c]pyridin-4-yl)oxy)-5-methyl-3-((6-methylpyridin-2-yl)methyl)-3,5-dihydro-4H-pyridazino[4,5-b]indol-4-one] | 73 | – | 69 | – | 272 | 165
25 | Cc1cccc(Cn2ncc3c4ccc(Oc5ncnc6[nH]ncc56)cc4n(C)c3c2=O)n1 [Example 65, 7-((1H-pyrazolo[3,4-d]pyrimidin-4-yl)oxy)-5-methyl-3-((6-methylpyridin-2-yl)methyl)-3,5-dihydro-4H-pyridazino[4,5-b]indol-4-one] | 115 | – | 43 | – | 262 | 191
26 | Cc1cccc(Cn2ncc3c4ccc(Oc5cccc(F)n5)cc4n(C)c3c2=O)n1 [Example 66, 7-((6-fluoropyridin-2-yl)oxy)-5-methyl-3-((6-methylpyridin-2-yl)methyl)-3,5-dihydro-4H-pyridazino[4,5-b]indol-4-one] | 121 | – | 36 | – | 323 | 154
27 | Cc1cccc(Cn2ncc3c4ccc(Oc5cccc(Cl)n5)cc4n(C)c3c2=O)n1 [Example 67, 7-((6-chloropyridin-2-yl)oxy)-5-methyl-3-((6-methylpyridin-2-yl)methyl)-3,5-dihydro-4H-pyridazino[4,5-b]indol-4-one] | 147 | – | 49 | – | 290 | 277

Reference: patent publication US20230374017A1, “COMPOSITIONS AND METHODS FOR ACTIVATING PYRUVATE KINASE” (The Regents of the University of Michigan, priority 2020, published 2023)
